Experiments:
Assay type in all cases: in vivo, human
[1] = test system: patients with interstitial lung disease and pulmonary hypertension; test: Exacerbations of underlying lung disease, 16-week placebo-controlled trial of inhaled treprostinil (INCREASE)
Description: (§1) Subjects having underlying lung disease were treated with inhaled treprostinil over 16 weeks. Subjects initiated inhaled treprostinil or placebo at a dose of 3 breaths (18 mcg) 4 times daily (during waking hours). Study drug doses were maximized throughout the study. Dose escalations (additional 1 breath 4 times daily) could occur up to every 3 days with a target dosing regimen of 9 breaths (54 mcg) 4 times daily and a maximum dose of 12 breaths (72 mcg) 4 times daily, as clinically tolerated. Subjects were assessed during Screening and Baseline to determine eligibility for the study. Once eligible, 5 Treatment Phase visits to the clinic were required at Week 4, Week 8, Week 12, Week 15, and Week 16 (final study visit). An Early Termination (ET) Visit was conducted for subjects who discontinued prior to Week 16; all assessments planned for the final Week 16 Visit were conducted during the ET Visit, if applicable. Subjects were contacted at least weekly by telephone or email to assess tolerance to study drug, adverse events (AEs), and changes to concomitant medications.

[2] = test system: patients with interstitial lung disease and pulmonary hypertension; test: Supplemental oxygen use, INCREASE
[3] = test system: patients with interstitial lung disease and pulmonary hypertension; test: Pulmonary function tests (FVC, FEV1, TLC, DLCO), mixed model repeated measurement, INCREASE
Description: as §1
Pulmonary function testing was initially conducted as a safety assessment (Safety Population) during the study. […] As a result, post hoc MMRM analyses of FVC data were performed for the ITT Population and are presented in Table 1 (ITT Population), Table 2 (by PH ILD Etiology of IIP) and Table 3 (for subjects with IPF), shown below.
The 6-minute walk test was performed and laboratory data were obtained at baseline and at weeks 4, 8, 12, and 16, or at the time of early discontinuation of treprostinil or placebo. Each 6-minute walk test was performed 10 to 60 minutes after the most recent dose of active drug or placebo, which is the time of peak plasma treprostinil exposure. A trough test was performed at week 15 at least 4 hours after the participant received a dose of treprostinil or placebo and at least 24 hours before the week 16 test. Pulse oximetry was performed immediately before, during, and after each 6-minute walk test. Measurement of N-terminal pro-B-type natriuretic peptide (NT-proBNP) levels and pulmonary function tests were performed at baseline and at weeks 8 and 16 (or at early discontinuation) after the patients recovered from the 6-minute walk test. The St. George's Respiratory Questionnaire (SGRQ), a quality-of-life measure, was completed at baseline and week 16 or at the time of early discontinuation.
LS Mean (SE); P-values; estimated difference (SE); and associated 95% CIs are from the mixed model repeated measurement with the change from Baseline in pulmonary function test parameter as the dependent variable; treatment, week, treatment by week interaction as the fixed effects; Baseline measurement as the covariate; and subject as the random effect. An unstructured variance/covariance structure shared across treatment groups was used to model the within-subject errors.

[4] = Week 8, subjects with IPF, listed as inhaled treprostinil
[5] = Week 16, subjects with IPF, listed as inhaled treprostinil

CCCCC[C@H](O)CC[C@@H]1[C@H]2Cc3cccc(OCC(=O)O)c3C[C@H]2C[C@H]1O [Inhaled treprostinil, treprostinil]
patients with exacerbations of underlying lung disease ([1]; over the 16-week treatment period): 26.4% | hazard ratio, exacerbation of underlying lung disease ([1]; vs placebo, 16 weeks): 0.66 | reduction in risk of an exacerbation of underlying lung disease ([1]; vs placebo, 16 weeks): 34% | Supplemental oxygen use During Walk (L/min), Change from Baseline, Median ([2]; Baseline During Walk): 0.0 L/min | Supplemental oxygen use During Walk (L/min), Value, Median ([2]; Baseline During Walk): 4.0 L/min | Supplemental oxygen use During Walk (L/min), Change from Baseline, Mean (SD) ([2]; Baseline During Walk, n 129): 0.1 (0.8) L/min | Supplemental oxygen use During Walk (L/min), Value, Mean (SD) ([2]; Baseline During Walk, n 129): 4.9 (4.0) L/min | Supplemental oxygen use Pre-walk (L/min), Change from Baseline, Median ([2]; Week 16): 0.0 L/min | Supplemental oxygen use Pre-walk (L/min), Value, Median ([2]; Week 16): 3.0 L/min | Supplemental oxygen use Pre-walk (L/min), Change from Baseline, Mean (SD) ([2]; Week 16, n 131): 0.4 (1.4) L/min | Supplemental oxygen use Pre-walk (L/min), Value, Mean (SD) ([2]; Week 16, n 131): 3.0 (2.5) L/min | treatment-related changes in supplemental oxygen use ([2]; over the trial period): no significant treatment-related changes | effect on any pulmonary function test variable during the trial ([3]; 16-week trial): no deleterious effect | FVC (% predicted), Estimated Difference Inhaled treprostinil - Placebo ([3]; Week 8, ITT Population, MMRM): 1.79 % predicted | FVC (% predicted), LS Mean change from baseline ([3]; Week 8, ITT Population, MMRM): 0.77 % predicted | FVC (mL), Estimated Difference Inhaled treprostinil - Placebo ([3]; Week 8, ITT Population, MMRM): 28.47 mL | FVC (mL), LS Mean change from baseline ([3]; Week 8, ITT Population, MMRM): 5.49 mL | DLCO (% predicted), Estimated Difference Inhaled treprostinil − Placebo ([3]; Week 8, MMRM): 1.07 % predicted | DLCO (% predicted), LS Mean change from Baseline ([3]; Week 8, MMRM): −0.13 % predicted | DLCO (mL/min/mmHg), Estimated Difference Inhaled treprostinil − Placebo ([3]; Week 8, MMRM): 0.19 mL/min/mmHg | DLCO (mL/min/mmHg), LS Mean change from Baseline ([3]; Week 8, MMRM): −0.27 mL/min/mmHg | FEV1 (% predicted), Estimated Difference Inhaled treprostinil − Placebo ([3]; Week 8, MMRM): 0.57 % predicted | FEV1 (% predicted), LS Mean change from Baseline ([3]; Week 8, MMRM): −0.18 % predicted | FEV1 (mL), Estimated Difference Inhaled treprostinil − Placebo ([3]; Week 8, MMRM): -8.95 mL | FEV1 (mL), LS Mean change from Baseline ([3]; Week 8, MMRM): -21.34 mL | TLC (% predicted), Estimated Difference Inhaled treprostinil − Placebo ([3]; Week 8, MMRM): 0.28 % predicted | TLC (% predicted), LS Mean change from Baseline ([3]; Week 8, MMRM): −0.05 % predicted | TLC (mL), Estimated Difference Inhaled treprostinil − Placebo ([3]; Week 8, MMRM): -16.23 mL | TLC (mL), LS Mean change from Baseline ([3]; Week 8, MMRM): -38.75 mL | FVC (% predicted), Estimated Difference Inhaled treprostinil - Placebo ([3]; Week 8, PH-ILD etiology IIP): 1.95 % predicted | FVC (% predicted), LS Mean change from baseline ([3]; Week 8, PH-ILD etiology IIP): 0.92 % predicted | FVC (mL), Estimated Difference Inhaled treprostinil - Placebo ([3]; Week 8, PH-ILD etiology IIP): 46.48 mL | FVC (mL), LS Mean change from baseline ([3]; Week 8, PH-ILD etiology IIP): 9.27 mL | FVC (% predicted), Estimated Difference Inhaled treprostinil - Placebo ([3]; Week 8, subjects with IPF): 2.543 % predicted | FVC (% predicted), LS Mean change from baseline ([3]; Week 8, subjects with IPF): 1.60 % predicted | FVC (mL), Estimated Difference Inhaled treprostinil - Placebo ([3]; Week 8, subjects with IPF): 84.522 mL | FVC (mL), LS Mean change from baseline ([3]; Week 8, subjects with IPF): 41.69 mL | FVC (% predicted), Estimated Difference Inhaled treprostinil - Placebo [3, 4]: 2.54 % predicted | FVC (mL), Estimated Difference Inhaled treprostinil - Placebo [3, 4]: 84.52 mL | FVC (% predicted), Estimated Difference Inhaled treprostinil - Placebo ([3]; Week 16, ITT Population, MMRM): 1.80 % predicted | FVC (% predicted), LS Mean change from baseline ([3]; Week 16, ITT Population, MMRM): 1.07 % predicted | FVC (mL), Estimated Difference Inhaled treprostinil - Placebo ([3]; Week 16, ITT Population, MMRM): 44.40 mL | FVC (mL), LS Mean change from baseline ([3]; Week 16, ITT Population, MMRM): 9.77 mL | DLCO (% predicted), Estimated Difference Inhaled treprostinil − Placebo ([3]; Week 16, MMRM): 0.60 % predicted | DLCO (% predicted), LS Mean change from Baseline ([3]; Week 16, MMRM): −1.14 % predicted | DLCO (mL/min/mmHg), Estimated Difference Inhaled treprostinil − Placebo ([3]; Week 16, MMRM): 0.02 mL/min/mmHg | DLCO (mL/min/mmHg), LS Mean change from Baseline ([3]; Week 16, MMRM): −0.61 mL/min/mmHg | FEV1 (% predicted), Estimated Difference Inhaled treprostinil − Placebo ([3]; Week 16, MMRM): 0.38 % predicted | FEV1 (% predicted), LS Mean change from Baseline ([3]; Week 16, MMRM): −0.24 % predicted | FEV1 (mL), Estimated Difference Inhaled treprostinil − Placebo ([3]; Week 16, MMRM): -2.56 mL | FEV1 (mL), LS Mean change from Baseline ([3]; Week 16, MMRM): -32.18 mL | TLC (% predicted), Estimated Difference Inhaled treprostinil − Placebo ([3]; Week 16, MMRM): 1.49 % predicted | TLC (% predicted), LS Mean change from Baseline ([3]; Week 16, MMRM): 2.52 % predicted | TLC (mL), Estimated Difference Inhaled treprostinil − Placebo ([3]; Week 16, MMRM): 17.37 mL | TLC (mL), LS Mean change from Baseline ([3]; Week 16, MMRM): 45.43 mL | FVC (% predicted), Estimated Difference Inhaled treprostinil - Placebo ([3]; Week 16, PH-ILD etiology IIP): 2.88 % predicted | FVC (% predicted), LS Mean change from baseline ([3]; Week 16, PH-ILD etiology IIP): 1.66 % predicted | FVC (mL), Estimated Difference Inhaled treprostinil - Placebo ([3]; Week 16, PH-ILD etiology IIP): 108.18 mL | FVC (mL), LS Mean change from baseline ([3]; Week 16, PH-ILD etiology IIP): 22.16 mL | FVC (% predicted), median improvement ([3]; Week 16, Safety Population): 1.0% | FVC (% predicted), Estimated Difference Inhaled treprostinil - Placebo ([3]; Week 16, subjects with IPF): 3.504 % predicted | FVC (% predicted), LS Mean change from baseline ([3]; Week 16, subjects with IPF): 1.62 % predicted | FVC (mL), Estimated Difference Inhaled treprostinil - Placebo ([3]; Week 16, subjects with IPF): 168.524 mL | FVC (mL), LS Mean change from baseline ([3]; Week 16, subjects with IPF): 38.24 mL | FVC (% predicted), Estimated Difference Inhaled treprostinil - Placebo [3, 5]: 3.50 % predicted | FVC (mL), Estimated Difference Inhaled treprostinil - Placebo [3, 5]: 168.52 mL

— patent publication US12697315B2, “Treatment for interstitial lung disease” (United Therapeutics Corporation, priority 2020, dated 2026)
